One assay concerns HepG2 cells. The assay is described as follows: Cu-albumin cell toxicity, CellTiter-Glo, HepG2. Format: cell-based, human. The protocol:
(§1) SHSY5Y (human neuroblastoma), U87MG (human astrocytoma), EA.hy926 (human endothelium) and HepG2 (human hepatocellular carcinoma) cells were from ATCC (Wesel, Germany) and were cultured in Dulbecco's Modified Eagle Medium (DMEM) supplemented with 10% FCS (Biochrom, Berlin, Germany) and 1% antibiotic-antimycotic (Life Technologies, Carlsbad, USA). All cells were maintained at 37° C. in a humidified atmosphere with 5% CO2.

Assay [1] deals with Cu-albumin complex (bovine serum albumin) (Bos taurus, UniProt P02769). The note with it: 750 μM copper, 250 μM albumin, molar ratio Cu-albumin-chelator 3:1:3. The procedure: 10 mg of fatty acid free bovine serum albumin (subsequently referred to as albumin, Carl Roth, Karlsruhe, Germany) were resuspended in 10 mM Tris-HCl buffer (pH 7.4) and mixed with 45 μL of 10 mM copper chloride. […] Briefly, 50 μL of each fraction were mixed with 10 μL 0.2% NQS, 10 μL of 0.2 M sodium phosphate buffer (pH 12.0) and 30 μL ddH2O in a clear 96-well plate. The samples were incubated for 20 min and absorbance was measured at 452 nm.
Sequence of Cu-albumin complex (bovine serum albumin) (P02769 25-607, one chain of several): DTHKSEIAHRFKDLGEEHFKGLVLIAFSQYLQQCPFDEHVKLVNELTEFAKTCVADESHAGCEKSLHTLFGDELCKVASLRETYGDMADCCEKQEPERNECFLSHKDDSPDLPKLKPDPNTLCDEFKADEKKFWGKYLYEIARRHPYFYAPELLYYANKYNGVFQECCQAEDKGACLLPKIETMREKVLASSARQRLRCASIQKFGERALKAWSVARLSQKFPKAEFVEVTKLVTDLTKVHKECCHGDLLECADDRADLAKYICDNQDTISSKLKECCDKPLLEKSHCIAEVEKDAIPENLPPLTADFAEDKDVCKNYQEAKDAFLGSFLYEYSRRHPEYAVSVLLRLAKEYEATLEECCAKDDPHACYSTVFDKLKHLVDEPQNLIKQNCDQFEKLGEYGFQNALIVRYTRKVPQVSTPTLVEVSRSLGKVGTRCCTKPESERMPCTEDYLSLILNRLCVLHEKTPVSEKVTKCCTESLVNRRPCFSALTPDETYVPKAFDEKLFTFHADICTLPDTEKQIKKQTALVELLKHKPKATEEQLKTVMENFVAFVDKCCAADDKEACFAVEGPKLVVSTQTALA

The subject of assay [2] is HepG2, EA.hy926, U87MG and SHSY5Y cells. Particulars: 750 μM copper, 250 μM albumin, 750 μM chelator.
Protocol: 2×10^4 cells were seeded into each well of a 96-well plate and incubated overnight. […] Cell toxicity was either determined by CellTiter-Glo® assay (Promega, Madison, USA) or Trypan blue exclusion test.
Afterwards, cells were trypsinized and counted. Cell viability was determined by Trypan blue exclusion test.
In the next assay the test system is PBCEC monolayers. The assay is described as follows: TEER and capacitance of PBCEC monolayers (endothelial blood-brain barrier model). In kind it is cell-based, porcine. From the text:
(§2) For transepithelial resistance (TEER) experiments (Srinivasan, B., et al., J Lab Autom, 2015. 20(2): p. 107-26), cryopreserved primary porcine brain capillary endothelial cells (PBCECs) were thawed and seeded either on rat tail collagen-coated 96-well plates for cytotoxicity testing using the Neutral red assay (Repetto, G., A. del Peso, and J. L. Zurita, Nat Protoc, 2008. 3(7): p. 1125-31) or Transwell® inserts (area: 1.12 cm^2, pore size: 0.4 μm: Corning, N.Y., USA) for barrier integrity studies. Cells were cultured for 48 hours in Earle's Medium 199 supplemented with 10% FCS, 50 U penicillin/mL, 50 μg/mL streptomycin, 100 μg/mL gentamycin and 0.7 mM I-glutamine and maintained at 37° C. in a humidified atmosphere with 5% CO2. […] TEER and capacitance values were continuously monitored over 48 h using a CellZscope device (nanoAnalytics, Münster, Germany). Only PBCEC monolayers with initial TEER values >600Ωcm^2 and capacitance values between 0.45 and 0.6 μF/cm^2 were used for permeability studies (Bornhorst, J., et al., J Biol Chem, 2012. 287(21): p. 17140-51). The barrier integrity was calculated by normalizing the TEER values to the respective start values.

Another assay concerns Atp7b^−/− rats. The assay can be described thus: Chelator treatment of WD rats: copper in serum, urine and feces (ICP-OES). In kind it is in vivo, rat. The protocol: Control Atp7b^+/- and WD Atp7b^-/- rats were fed ad libitum with normal chow (1314; 13.89 mg Cu/kg; Altromin Spezialfutter GmbH, […], Germany) and tap water. All rats were healthy at treatment start and presented no signs of acute liver damage (serum AST <200 U/L and serum bilirubin <0.5 mg/dl). […] Untreated Atp7b^+/- and Atp7b^-/- rats served as controls. Urine and feces were collected at 24-hour intervals for which rats were housed individually in metabolic cages for 4 days. After a two-day resting period off treatment in normal cages and group housing, rats were sacrificed for serum collection.

The test system of another assay is U87MG cells. The assay is described as follows: High-resolution respirometry, U87MG. Format: cell-based, human. The note with it: Cu-albumin-treated, vs Cu-albumin alone. The procedure: Oxygen consumption was assessed by high-resolution respirometry (HRR) using the Oxygraph-2k and DatLab 7.0 (Oroboros Instruments GmbH, Innsbruck, Austria) as described previously (Pesta, D. and E. Gnaiger, Methods Mol Biol, 2012. 810: p. 25-58). Per chamber, 1.5-2×10^6 living cells were supplied in 2 mL of MiR05 buffer (0.5 mM EGTA, 3 mM MgCl2, 60 mM lactobionic acid, 20 mM taurine, 10 mM KH2PO4, 20 mM HEPES, 110 mM sucrose, 1 g/L albumin, pH 7.1) and routine respiration was measured. Addition of 2.5 μM oligomycin (inhibitor of the FOF1-ATPase) enabled the measurement of leak respiration and stepwise addition of CCCP (1 μL steps from 1 mM stock solution) allowed the determination of the maximum oxygen flux and thereby the capacity of the electron transport system (ETS). The oxygen flux was baseline-corrected for non-mitochondrial oxygen consuming processes (ROX) by the addition of 2.5 μM of the complex III-inhibitor antimycin A.

Assay [3] relates to Zonula occludens-1 (ZO-1). The assay can be described thus: Immunocytochemistry staining of Zonula occludens-1 in PBCEC monolayers. Format: cell-based, porcine. The note with it: 250 μM copper and 83.3 μM albumin, 250 μM chelator. The procedure: (§3) Total copper was determined by ICP-MS/MS as previously described (Kopp, J. F., et al., J Trace Elem Med Biol, 2019. 54: p. 221-225). For the immunocytochemical staining of tight junction proteins, confluent PBCECs cultivated on Transwell® membrane inserts were processed as previously described ([…]., et al., Archives of Toxicology 2018. 92(2): p. 823-832). Briefly, PBCECs were fixed with formaldehyde and permeabilized using Triton X-100. After blocking of unspecific binding sites by albumin, the cells were incubated with the either anti-claudin 5 or anti-ZO-1 antibody (Zytomed Systems GmbH, Berlin, Germany). Following a second blocking step, the cells were treated with an Alexa Fluor® 488 conjugated secondary antibody (Invitrogen, Molecular Probes Inc., Eugene, USA). Hoechst 33258 (Merck, Darmstadt, Germany) was used to stain cell nuclei. Subsequently, membranes were cut out of the inserts and mounted in Aqua Poly/Mount (Polysciences Inc., Washington, USA). After a solidification period of 24 hours, the samples were evaluated using a DM6 B fluorescence microscope by Leica Microsystems CMS GmbH (Wetzlar, Germany) in combination with the Leica Application Suite X.

Assay [4] deals with tight junction protein claudin-5. The assay is described as follows: Immunocytochemistry staining of claudin-5 in PBCEC monolayers. The note with it: 250 μM copper and 83.3 μM albumin, 250 μM chelator. Format: cell-based, porcine. The procedure: as §3
Assay [5] has as its system HepG2, EA.hy926, U87MG and SHSY5Y cells. The assay can be described thus: Cu-albumin cell toxicity, CellTiter-Glo, all investigated cell lines. Format: cell-based, human. The note with it: 750 μM chelator, 250 μM albumin, copper 250 to 2500 μM, 24 h. The procedure: as §1
Assay [6] has as its system primary porcine brain capillary endothelial cells (PBCECs). The note with it: 750 μM copper and 250 μM albumin, 750 μM ALXN1840, 48 h.
From the text: as §2

Structures are written as SMILES. Entries after “also recorded” stand apart in the source; their conditions may differ.

Turning to `C[N+](C)(C)CCO.C[N+](C)(C)CCO.[SH-].[SH-].[S]=[Mo]=[S]` [ALXN1840, bis-choline tetrathiomolybdate], the “CellTiterGlo-assessed cell viability / Cu-albumin toxicity” value in the assay with HepG2 cells (HepG2, 750 μM chelator) is listed as “protected”; in the assay on HepG2 cells (HepG2, low dose of chelator (250 μM)), “partially rescued”; in [5], “fully avoided such toxicity up to a Cu-albumin ratio of 4:1”. Besides, in [1], the “distribution of copper, albumin and chelator over gel filtration fractions” value is “one prominent gel filtration peak appeared; also recorded: albumin, molybdenum and copper were present in the same fractions”. In assay [2], the “Trypan blue-assessed cell viability / copper-related cell toxicity” value is reported as “cellular viability was significantly maintained; also recorded: protected all cell lines”. The “transepithelial electrical resistance (TEER)” value in the assay with PBCEC monolayers (250 μM copper and 83.3 μM albumin, 250 μM chelator, 48 h) is recorded as “stable TEER values for 48 h; also recorded: could be rescued”. For the same molecule, in the assay with PBCEC monolayers (Cu-albumin treatment in the absence or presence of chelator), the capacitance values result is recorded as “unaffected”. The fecal copper excretion result in the assay with Atp7b^−/− rats (during treatment) was “unchanged”. Besides, the urinary copper excretion result in the assay on Atp7b^−/− rats (during treatment, urine collected over 24 h) was “lack of urinal copper excretion”. For the same molecule, the serum copper levels entry with Atp7b^−/− rats (i.p. once daily for 4 consecutive days (ALXN1840 2.5 mg/kg bw, DPA 100 mg/kg bw), serum at sacrifice after resting period) is recorded as “significantly increased; also recorded: increased serum copper levels”. Besides, in the assay with Atp7b^−/− rats (observation period of 96 hours), the “net copper excretion (urine and feces)” value is recorded as “no profoundly elevated net copper excretion”. Moreover, in the assay with U87MG cells, the “respiratory control ratio E/L (ETS to leak respiration)” value is recorded as “tendentiously; also recorded: less pronounced”. Besides, the “ZO-1 distribution (uneven, diffuse staining upon Cu-albumin)” value in assay [3] is reported as “could be fully protected; also recorded: prevented”. The “claudin-5 staining pattern / copper-induced gap formation” value in assay [4] is “continuous and uninterrupted; also recorded: less pronounced”. Besides, the “cell viability (neutral red)” value in [6] is “could be rescued”.
